These results are taken from patent US20160303114A1 (Laguna Pharmaceuticals, Inc., priority 2013, published 2016).

Data set [1] in a line: Preliminary studies of daily use of vanoxerine over 7, 10 and 14 days. It counts as in vivo. As to conditions: daily use over 7, 10, and 14 days, 75, 100, 125, and 150 mg a day. The text has this: However, control and prevention of events of cardiac arrhythmia are important to these patients to prevent future recurrences and the deleterious effects and morbidity.
For data set [2] the following is noted: healthy subjects, higher doses of vanoxerine; cited from earlier work.
Data set [3] is described as follows: Example 4: plasma concentrations of vanoxerine in patients after an oral vanoxerine HCL tablet. It counts as in vivo, human. As to conditions: outlier patient, CYP2D6 slow metabolizer. An excerpt:
The results identified high levels of variability between patients and a single outlier, who was particularly profiled to determine the possible cause of the high plasma concentration levels.
Accordingly, the individual patient could have received administration of ½ to ¼ the dose of other patients for the same effective plasma concentration as the majority of the patients in the study.

Data set [4] in a line: Example 5: concentrations of vanoxerine and its metabolites in patients after a 300 mg dose of vanoxerine. It counts as in vivo, human. As to conditions: low concentration group, 300 mg vanoxerine. As for the experimental part:
Each patient gave samples before administration of their dose, and then again at nine further time points, 30 minutes after administration, 1, 2, 3, 4, 6, 8, 12, and 24 hours post administration.

Turning to `Fc1ccc(C(OCCN2CCN(CCCc3ccccc3)CC2)c2ccc(F)cc2)cc1` [Vanoxerine, 1-[2-[bis(4-fluorophenyl)methoxy]ethyl]-4-(3-phenylpropyl)piperazine], the “effects of daily use” value in data set [1] is “increased heart rate and systolic blood pressure”. Moreover, the “effects seen at higher doses” value in data set [2] was “concentration difficulties, increase systolic blood pressure, asthenia, and a feeling of drug influence”. The plasma concentration entry in data set [3] is “unusually high plasma concentration”. The “plasma levels, highest at any time point” value in data set [4] is around 40 ng/mL.
